{"source": "patent US20090042993A1", "about": "“IDENTIFICATION OF NOVEL POST-TRANSLATIONAL PROTEIN MODIFICATIONS” (priority 2007, published 2009)", "key": {"[1]": {"molecular_target": "T1, ER membrane acetyl-CoA transport activity (Cricetulus griseus, UniProt G3H231)", "T1 sequence (G3H231 1-550)": "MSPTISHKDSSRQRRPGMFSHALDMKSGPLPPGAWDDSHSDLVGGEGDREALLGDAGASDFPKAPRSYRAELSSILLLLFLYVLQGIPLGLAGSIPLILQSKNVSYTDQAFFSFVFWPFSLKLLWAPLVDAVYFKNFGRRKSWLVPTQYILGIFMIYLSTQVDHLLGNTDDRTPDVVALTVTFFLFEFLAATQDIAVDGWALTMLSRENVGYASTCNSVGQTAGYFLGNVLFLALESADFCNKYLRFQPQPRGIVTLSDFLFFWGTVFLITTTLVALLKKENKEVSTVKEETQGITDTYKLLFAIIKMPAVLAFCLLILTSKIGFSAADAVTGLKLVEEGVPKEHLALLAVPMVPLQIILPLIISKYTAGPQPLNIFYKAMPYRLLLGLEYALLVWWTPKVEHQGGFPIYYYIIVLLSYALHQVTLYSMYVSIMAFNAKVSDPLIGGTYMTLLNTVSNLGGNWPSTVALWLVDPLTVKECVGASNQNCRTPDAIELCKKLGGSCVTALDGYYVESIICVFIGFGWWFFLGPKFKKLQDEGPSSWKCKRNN", "test": "Acetyl-CoA transport assay into intact ER vesicles", "type": "biochemical, Chinese Hamster", "quoted_text": "Intact vesicles from the endoplasmic reticulum (ER) and the Golgi apparatus were purified on a 10-34% Iodixanol (OptiPrep; Axis-Shield, Norway) continuous gradient as described (Puglielli et al., 2001, Nat. Cell Biol. 3: 905-912). […] Fractions enriched in ER and Golgi markers (also called ER or Golgi vesicles herein) were separated, pooled together, and resuspended in isotonic/cryogenic buffer (0.25 M sucrose and 10 mM Tris-HCl, pH 7.4) in the presence of protease inhibitors (Roche). Latency of ER and Golgi vesicles was determined with the glucose-6-phosphatase (Clairmont et al., 1992, J. Biol. Chem. 267: 3983-3900) and the sialyl-transferase (Puglielli and Hirschberg, 1999, J. Biol. Chem. 274: 35596-35600) methods, respectively. The purity of the preparation was further confirmed by assaying the above enzymatic activities, together with transport of CMP-sialic acid.\nBriefly, assays were performed in 100 μl final volume (isotonic/cryogenic buffer) using 25 to 50 μg of ER/Golgi vesicles protein. […] After 5 min at 30° C., reactions were stopped by lowering the temperature to 0-4° C. and by adding 100 μl of ice-cold isotonic/cryogenic buffer (described above). […] Pellets were then dissolved in 0.6 mL of NaOH 1 N; after neutralization with 0.2 mL of 4N HCl, samples were counted by scintillation spectrometry. […]\nAsterisk (*) indicates statistical significance (n=3) (P<0.0005). FIG. 5(D): transport of CMP-sialic acid into ER and Golgi intact vesicles was measured as described in (A). […] FIG. 5(E): transport of ATP into ER intact vesicles obtained from control and ceramide-treated CHO cells was measured as described in FIG. 5(A). […]\nTranslocation was measured as described in the Materials and Methods section. […] FIG. 10(E): transport of ATP into ER intact vesicles obtained from control and ceramide-treated CHO cells was measured as described in FIG. 10(A). […]\nResults are expressed as percent of control (no CoA; white bar) and are the average±S.D. Asterisk (*) indicates statistical significance. […]"}, "[2]": {"system": "ER membrane ATP transport", "test": "ATP transport into intact ER vesicles", "type": "biochemical, Chinese Hamster", "conditions": "vesicles from control and ceramide-treated cells, 5 and 10 μM solute", "description": "(§1) Intact vesicles from the endoplasmic reticulum (ER) and the Golgi apparatus were purified on a 10-34% Iodixanol (OptiPrep; Axis-Shield, Norway) continuous gradient as described (Puglielli et al., 2001, Nat. Cell Biol. 3: 905-912). The complete migration of subcellular markers in a typical gradient is shown in Costantini et al., 2006, EMBO J. 25: 1997-2006; Puglielli et al., 2001, Nat. Cell Biol. 3: 905-912. Fractions enriched in ER and Golgi markers (also called ER or Golgi vesicles herein) were separated, pooled together, and resuspended in isotonic/cryogenic buffer (0.25 M sucrose and 10 mM Tris-HCl, pH 7.4) in the presence of protease inhibitors (Roche). Latency of ER and Golgi vesicles was determined with the glucose-6-phosphatase (Clairmont et al., 1992, J. Biol. Chem. 267: 3983-3900) and the sialyl-transferase (Puglielli and Hirschberg, 1999, J. Biol. Chem. 274: 35596-35600) methods, respectively. The purity of the preparation was further confirmed by assaying the above enzymatic activities, together with transport of CMP-sialic acid. […]\nBriefly, assays were performed in 100 μl final volume (isotonic/cryogenic buffer) using 25 to 50 μg of ER/Golgi vesicles protein. […] Pellets were then dissolved in 0.6 mL of NaOH 1 N; after neutralization with 0.2 mL of 4N HCl, samples were counted by scintillation spectrometry. […]"}, "[3]": {"system": "acetyl-CoA:lysine acetyltransferase activity in ER vesicles", "test": "Membrane acetyltransferase activity, in vitro acetylation of BACE1-myc by ER vesicles", "type": "biochemical, Chinese Hamster", "conditions": "vesicles from control or ceramide-treated cells, 0.2% Triton X-100, 30° C.", "description": "as §1, with “respectively.” for “respectively. The purity of the preparation was further confirmed by assaying the above enzymatic activities, together with transport of CMP-sialic acid.”\nThe reaction was stopped by adding 200 μl of ice-cold buffer and immediate immersion in ice; BACE1 was then immunoprecipitated and counted on a liquid scintillation counter. […]\nFIG. 6 illustrates how acetyltransferase and deacetylase activities exist in the lumen of ER and Golgi apparatus, respectively. […] The reaction was stopped by lowering the temperature; BACE1 was then purified again and analyzed on a scintillation liquid counter. […]"}, "AT-1": {"system": "AT-1", "test": "AT-1 mRNA by real-time quantitative PCR in SH-SY5Y cells", "type": "cell-based, human", "conditions": "C6-cer 10 μM", "protocol": "FIG. 15(A): SH-SY5Y cells were treated with ceramide (C6-cer; 10 μM) prior to real-time quantitative PCR. Treatment was performed as previously described (Costantini et al., 2007; Costantini et al., 2005; Puglielli et al., 2003). Results are expressed as percent of control (n=5)±S.D. of control (no treatment). Asterisk (*) indicates statistical significance. […] FIG. 15(B): a cDNA library (frontal cortex) of late-onset AD (n=5 different subjects) and age-matched controls (n=5 different subjects) was analyzed by quantitative real-time PCR. Results are expressed as percent of age-matched controls±S.D. Asterisk (*) indicates statistical significance."}}, "data": [{"smiles": "CCCCCCCCCCCCC/C=C/[C@@H](O)[C@H](CO)NC(=O)CCCCC", "note": "[ceramide, C6-ceramide]", "values": [{"measurement": "increase in the Vmax of acetyl-CoA transport", "setting": "[1]; ER vesicles from ceramide treated cells vs untreated", "value": "~30", "unit": "%"}, {"measurement": "Km of acetyl-CoA transport", "setting": "[1]; ER vesicles from ceramide treated cells, Lineweaver-Burk", "value": "comparable to untreated cells"}, {"measurement": "ATP transport into ER vesicles", "setting": "[2]", "value": "no apparent difference"}, {"measurement": "in vitro acetylation of BACE1 by ER membrane vesicles", "setting": "[3]", "value": "no apparent difference"}, {"measurement": "AT-1 mRNA level", "setting": "AT-1", "value": "upregulated"}]}]}
